Experiments:
[1] = system: JAK kinases (JAK1 and JAK3); assay: JAK inhibition: IL-4-stimulated CD23 upregulation in human Ramos B-cells, FACS; type: cell-based; settings: IL-4 stimulated Ramos B-cells, read-out: IC50, inhibition of JAK kinases in cellular assay
Description: JAK inhibition was tested in human Ramos B-cells activated with IL-4. Twenty to 24 hours post stimulation, the cells are stained for upregulation of CD23 and analyzed by FACS. Stimulation of the B-cells with IL-4 leads to the activation of the JAK/STAT pathway through phosphorylation of the JAK kinase JAK1 and JAK3, which in turn phosphorylate and activate transcription of factor […].
For the assay, human Ramos B-cells (ATCC, Catalog No. CRL-1596) are cultured in RPMI 1640 medium (Cellgro, Catalog No. 10-040-CM) containing 10% fetal bovine serum (JRH, Catalog No. 12106-500M) according to the propagation protocol supplied with the cells, and maintained at a density of approximately 3.5×10^5 cells/ml. The day before the assay, the cells are diluted to 3.5×10^5 cells/ml to insure they are in the logarithmic growth phase. The cells are spun down, and suspended in RPMI 1640 medium containing 5% fetal bovine serum to a density of 3.5×10^4 cells/ml and aliquots dispensed into a 96-well tissue culture plate. Cells are incubated with test compound (dissolved in DMSO) or DMSO (control) for 1 hr at 37° C. and then stimulated with IL-4 (Pepotech, Catalog No. 200-04) for 20-24 hours (final concentration is 50 Units/ml). Cells are then spun down, stained with anti-CD23-PE antibody (BD Pharmigen, Catalog No. 555711) and analyzed by FACS.

[2] = target: T1, Axl kinase (Homo sapiens, UniProt P30530); assay: Phospho-Akt in-cell Western assay (Axl antibody cross-linking, Hela cells); type: cell-based; settings: phospho-Akt readout, read-out: IC50, inhibition of Axl kinase
T1 construct: endogenous in cells; host or cells: HeLa cells
T1 sequence (P30530 26-894): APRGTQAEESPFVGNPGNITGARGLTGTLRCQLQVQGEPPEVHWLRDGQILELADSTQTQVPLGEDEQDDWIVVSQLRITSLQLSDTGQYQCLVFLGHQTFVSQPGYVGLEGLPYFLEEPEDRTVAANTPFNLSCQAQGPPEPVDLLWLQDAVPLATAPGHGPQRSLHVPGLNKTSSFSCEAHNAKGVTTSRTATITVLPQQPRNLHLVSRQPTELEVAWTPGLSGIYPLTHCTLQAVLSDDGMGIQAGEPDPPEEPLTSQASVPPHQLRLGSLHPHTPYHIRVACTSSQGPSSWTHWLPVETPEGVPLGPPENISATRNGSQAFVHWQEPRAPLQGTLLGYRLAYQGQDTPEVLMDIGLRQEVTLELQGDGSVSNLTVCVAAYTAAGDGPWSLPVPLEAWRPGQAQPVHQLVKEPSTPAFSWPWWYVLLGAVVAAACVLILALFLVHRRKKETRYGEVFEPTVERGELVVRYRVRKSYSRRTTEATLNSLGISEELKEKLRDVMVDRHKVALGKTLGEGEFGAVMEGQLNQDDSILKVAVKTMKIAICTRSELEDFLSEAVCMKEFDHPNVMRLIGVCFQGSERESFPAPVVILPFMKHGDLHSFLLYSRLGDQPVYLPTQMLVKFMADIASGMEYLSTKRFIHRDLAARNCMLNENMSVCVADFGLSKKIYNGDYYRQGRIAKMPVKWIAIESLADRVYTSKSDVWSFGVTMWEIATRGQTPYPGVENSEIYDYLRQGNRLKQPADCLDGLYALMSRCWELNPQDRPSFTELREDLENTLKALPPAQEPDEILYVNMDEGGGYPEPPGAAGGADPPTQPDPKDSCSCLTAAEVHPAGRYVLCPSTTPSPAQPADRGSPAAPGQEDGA
Description: The compounds of the invention were tested in the following assay for their ability to inhibit Axl activity.
Phospho-Akt in-Cell Western Assay
Starvation medium: For Axl stimulation: 0.5% FCS (fetal calf serum) in DMEM, plus Axl/Fc (extracellular domain of AXL fused to immunoglobulin Fc region) (R&D, 154-AL) 500 ng/mL.
Axl antibody cross-linking: • 1st: Mouse anti-Axl (R&D, MAB 154). • 2nd: Biotin-SP-conjugated AffiniPure goat anti-mouse IgG (H+L) (Jackson ImmunoResearch #115-065-003).
Primary antibody: Rabbit anti-human Phospho-Akt antibody (Cell Signaling 9271): 1×250 diluted in blocking buffer.
Secondary antibody: HRP (horse radish peroxidase)-conjugated Goat anti-Rabbit secondary, stock solution: Jackson lmmunoResearch (Goat anti-Rabbit HRP, #111-035-144) 1:1 diluted in glycerol, store at −20° C. The working solution: 1×2000 dilution of stock in blocking buffer.
A 96 well TC (tissue culture treated) plate was coated with 10 μg/mL poly-L-Lysine at 37° C. for 30 min, washed twice with PBS, and air-dried for 5 minutes before cells were added. Hela cells were seeded at 10,000 cells/well and the cells were starved in 100 μL starvation medium containing Axl/Fc for 24 hrs.
The cells were pre-treated with test compounds by adding 100 μL of 2× test compound to the starvation medium on the cells. The cells were incubated at 37° C. for 1 hr before stimulation.
The cells were stimulated by Axl-antibody cross-linking as follows: A 5× 1st/2nd Axl antibody mixture was made (37.5 μg/mL 1st/100 μg/mL 2nd) in starvation medium and nutated at 4° C. with thorough mixing for 1-2 hours for clustering. The resulting mix was warmed to 37° C. 50 μL of 5× Axl 1st/2nd of antibody cluster was added to the cells and the cells were incubated at 37° C. for 5 min.
After 5 minutes stimulation, the plate was flicked to remove medium and the plate was tapped onto paper towels. Formaldehyde (4.0% in PBS, 100 μL) was added to fix the cells and the cells were incubated at ambient temperature for 20 min without shaking.
The cells were washed with a plate washer buffer to remove the formaldehyde solution. The plate was flicked to remove excess wash buffer and tapped onto paper towels. Quenching buffer (100 μL) was added to each well and the cells were incubated at ambient temperature for 20 minutes without shaking.
The cells were washed with a plate washer buffer to remove the quenching buffer. Blocking buffer (100 μL) was added and the cells were incubated at ambient temperature for at least an hour with gentle shaking.
The cells were washed with a plate washer buffer and diluted primary antibody (50 μL) was added to each well (blocking buffer was added to the negative control wells instead). The plates were incubated overnight at 4° C. with gentle shaking.
The wash buffer was removed, diluted secondary antibody (100 μL) was added, and the cells were incubated at ambient temperature for 1 hour with gentle shaking. During the incubation, the chemiluminescent reagent was brought to ambient temperature.
The secondary antibody was removed by washing the cells 1× with wash buffer, 1× with PBS by plate washer. The PBS was removed from the plate and the chemiluminescent reagent (80 μL: 40 μL A and 40 μL B) was added to each well at ambient temperature.
The resulting chemiluminescence was read with a Luminomitor within 10 minutes to minimize changes in signal intensity. After reading the chemiluminescence, the cells were washed 1× with wash buffer and 1× with PBS by plate washer. The plate was tapped onto paper towels to remove excess liquid from wells and air-dried at ambient temperature for 5 minutes.
Crystal Violet working solution (60 μL) was added to each well and the cells were incubated at ambient temperature for 30 min. The crystal violet solution was removed, and the wells were rinsed with PBS, then washed 3× with PBS (200 μL) for 5 minutes each.
5% SDS solution (70 μL) was added to each well and the cells were incubated on a shaker for 30 min at ambient temperature. […]

| Compound | IC50 [1] | IC50 [2] |
| --- | --- | --- |
| COc1cc2nc(Nc3cccc(O)c3)nc(NC3C4C=CC(C4)C3C(N)=O)c2cc1OC (racemic) [Compound 101, Racemic-(2-exo,3-exo)-N4-(3-aminocarbonylbicyclo[2.2. 1]hept-5-en-2-yl)-6,7-dimethoxy-N2-(3-hydroxy)phenyl-2,4-quinazoline-diamine] | < 5 µM | – |
| NC(=O)C1C2C=CC(C2)C1Nc1nc(Nc2cccc(O)c2)nc2ccccc12 (racemic) [Compound 102, Racemic-(2-exo,3-exo)-N4-(3-aminocarbonylbicyclo[2.2. 1]hept-5-en-2-yl)-N2-(3-hydroxy)phenyl-2,4-quinazoline-diamine] | < 5 µM | – |
| NC(=O)c1cccc(Nc2nc(NC3C4C=CC(C4)C3C(N)=O)c3nc[nH]c3n2)c1 (racemic) [Compound 122, Racemic-(2-exo,3-exo)-N6-(3-aminocarbonylbicyclo[2.2. 1]hept-5-en-2-yl)-N2-(3-aminocarbonyl)phenyl-1H-purine-2,6-diamine] | < 5 µM | – |
| NC(=O)C1C2CCC(C2)C1Nc1nc(Nc2ccc(N3CCCCC3)cc2)nc2[nH]ccc12 (racemic) [Compound 168, Racemic-(2-exo,3-exo) N4-(3-aminocarbonylbicyclo[2.2. 1]hept-2-yl)-N2-[4-(piperidin-1-yl)phenyl]-1H-pyrrlol[2,3-d]pyrimidine-2,4-diamine] | > 10 µM | – |
| NC(=O)C1C2C=CC(C2)C1Nc1nc(Nc2cccc(OCc3cccnc3)c2)nc2[nH]ccc12 (racemic) [Compound 225, Racemic-(2-exo,3-exo)-N4-(3-aminocarbonylbicyclo [2.2.1]hept-5-en-2-yl)-N2-[3-(3-pyridinylmethoxy)] phenyl-1H-pyrrolo[2,3-d]pyrimidine-2,4-diamine] | > 10 µM | < 5 µM |
| NC(=O)C1C2C=CC(C2)C1Nc1nc(Nc2cccc(OCc3cccnc3)c2)nc2[nH]cnc12 (racemic) [Compound 226, Racemic-(2-exo,3-exo-)-N6-(3-aminocarbonylbicyclo [2.2.1]hept-5-en-2-yl)-N2-[3-(3-pyridinylmethoxy)phenyl]-1H-purine-2,6-diamine] | > 10 µM | < 5 µM |
| Cc1csc2c(NC3C4C=CC(C4)C3C(N)=O)nc(Nc3ccc(OCCN4CCCC4)c(F)c3)nc12 (racemic) [Compound 241, Racemic-(2-exo,3-exo-)-7-methyl-N4-(3-aminocarbonylbicyclo [2.2.1]hept-5-en-2-yl)-N2-[3-fluoro-4-[2-(1-pyrrolidinyl)ethoxy]phenyl]-thieno[3,2-d]pyrimidine-2,4-diamine] | < 5 µM | < 5 µM |
| NC(=O)[C@@H]1[C@H](Nc2nc(Nc3ccc4[nH]ccc4c3)nc3[nH]cnc23)[C@H]2C=C[C@@H]1C2 [Compound 147, (1R,2R,3S,4S)-N6-(3-Aminocarbonylbicyclo[2.2. 1]hept-5-en-2-yl)-N2-(1H-indol-5-yl)-1H-purine-2,6-diamine] | < 5 µM | – |

Other lines, results leading:

| IC50 [1] | IC50 [2] | Compound |
| --- | --- | --- |
| > 10 µM | – | NC(=O)C1C2C=CC(C2)C1Nc1nc(Nc2ccc3c(c2)OCO3)nc2[nH]cnc12 (racemic) [Compound 125, Racemic-(2-exo,3-exo)-N6-(3-aminocarbonylbicyclo[2.2. 1]hept-5-en-2-yl)-N2-(1,3-benzodioxol-5-yl)-1H-purine-2,6-diamine] |
| > 10 µM | – | Cc1cc2cc(Nc3nc(NC4C5C=CC(C5)C4C(N)=O)c4nc[nH]c4n3)ccc2[nH]1 (racemic) [Compound 150, Racemic-(2-exo,3-exo-)-N6-(3-aminocarbonylbicyclo[2.2. 1]hept-5-en-2-yl)-N2-(2-methyl-1H-indol-5-yl)-1H-purine-2,6-diamine] |
| > 10 µM | < 10 µM | NC(=O)C1C2C=CC(C2)C1Nc1nc(Nc2cccc(OCc3ccncc3)c2)nc2[nH]ccc12 (racemic) [Compound 223, Racemic-(2-exo,3-exo)-N4-(3-aminocarbonylbicyclo [2.2.1]hept-5-en-2-yl)-N2-[3-(4-pyridinylmethoxy)] phenyl-1H-pyrrolo[2,3-d]pyrimidine-2,4-diamine] |
| > 10 µM | < 10 µM | NC(=O)C1C2C=CC(C2)C1Nc1nc(Nc2cccc(OCc3ccncc3)c2)nc2[nH]cnc12 (racemic) [Compound 224, Racemic-(2-exo,3-exo-)-N6-(3-aminocarbonylbicyclo [2.2.1]hept-5-en-2-yl)-N2-[3-(4-pyridinylinethoxy)] phenyl-1H-purine-2,6-diamine] |
| < 5 µM | < 5 µM | CONC(=O)C1C2C=CC(C2)C1Nc1nc(Nc2cccc(OC)c2)nc2[nH]ccc12 (racemic) [Compound 233, Racemic-(2-exo,3-exo)-N4-(N-methoxy-3-aminocarbonylbicyclo [2.2.1]hept-5-en-2-yl)-N2-(3-methoxyphenyl)-1H-pyrrolo[2,3-d]pyrimidine-2,4-diamine] |
| < 5 µM | < 10 µM | Cc1csc2c(NC3C4C=CC(C4)C3C(N)=O)nc(Nc3ccc(OCCN4CCCC4)cc3)nc12 (racemic) [Compound 240, Racemic-(2-exo,3-exo-)-7-methyl-N4-(3-aminocarbonylbicyclo [2.2.1]hept-5-en-2-yl)-N2-[4-[2-(1-pyrrolidinyl)ethoxy]phenyl]-thieno[3,2-d]pyrimidine-2,4-diamine] |

— US7601713B2, “Kinase inhibitors and their uses” (Rigel Pharmaceuticals, Inc., priority 2005, dated 2009)
